Data reported in PubChem BioAssay AID2060483 (Molecular Pharmacology Branch, DTP, NCI, 2025).

Test system: K24384-001-R-PDC complex spheroids, viability
Test: Anticancer human tumor K24384-001-R-PDC patient-derived pancreatic adenocarcinoma cell line growth inhibition [GQUAD]
Details: for IC50: curve of first compound; for viability, T/C: stronger effect = lower value
Text: DNA G-quadruplex Stabilizer Agents in Combinations in Complex Spheroids
A high-throughput screen of multi-cell type tumor spheroids was designed to identify active combinations of DNA G-quadruplex stabilizer agents and targeted small molecules. Complex spheroids include a stromal component modeled by human endothelial cells (HUVEC) and fibroblasts modeled by human mesenchymal stem cells (MSCs). The concentration ranges selected for each drug and investigational agent were based upon clinically achievable concentrations if the clinical Cmax of the agent was known.
Compounds. The drugs and investigational agents: pidnarulex (CX-5461; NSC782164), APTO-253 (NSC789042), BRACO-19 (NSC847499), peposertib (NSC802822), ceralasertib (NSC780249), elimusertib (NSC800525), camonsertib (NSC841442), AZD-1390 (NSC803789), olaparib (NSC753686), talazoparib (NSC767125), ART-558 (NSC835418), sotorasib (NSC818433), MRTX-1133 (NSC836407), SN-38 (NSC673596), topotecan (NSC609699), etoposide (NSC141540), doxorubicin (NSC123127), gemcitabine (NSC613327), 5-fluorouracil (NSC19893), paclitaxel (NSC125973), vemurafenib (NSC761431), panobinostat (NSC761190), R-306465 (JNJ-16241199; NSC773264), adavosertib (NSC754352), TP-3654 (NSC805149), carboplatin (NSC241240), KSQ-4279 (NSC840948), and staurosporine (NSC755774) were obtained from the National Cancer Institute (NCI) Developmental Therapeutics Program Chemical Repository (34). The FDA-approved anticancer drug set is available from the NCI Developmental Therapeutics Program. […] The stock solutions were prepared in dimethyl sulfoxide (DMSO, Sigma-Aldrich, St. Louis, MO, cat. D2650) at 800-fold the tested concentration and stored at -70 degrees C prior to their use. All drugs and investigational agents were tested over a range starting from a high concentration at or near the clinical Cmax and decreasing in half-log increments. If the clinical Cmax for an agent had not been determined, the highest concentration tested was 10 microM.
2.3 Cell Culture. All cells were maintained in an incubator at 37 degrees C and 5% CO2 with 95% humidity. The PDC lines were cultured according to standard operating procedures established by the NCI PDMR. All PDCs were thawed and cultured in Matrigel-coated flasks prepared with a working solution of 1X Ham's F-12 nutrient mix, without supplementation (Invitrogen, cat. 11765054), 100 U/mL penicillin-streptomycin (Invitrogen, cat. 15140122), and 2.5% Matrigel (Corning Inc., cat. 354248) for the first three passages. The 857933-349-R-J2-PDC line was cultured in 6C/Colon 1B media, which includes advanced DMEM/F-12 (Thermo Fisher Scientific, cat. 12634028), 10 mM HEPES (Thermo Fisher Scientific, cat. 15630080), 1X GlutaMAX supplement (Thermo Fisher Scientific, cat. 35050061), 0.1 mg/mL primocin (InvivoGen, cat. ant-pm-2), 10% defined fetal bovine serum, heat inactivated (HyClone Laboratories Inc., cat. SH30070.03HI), 50% L-WRN conditioned media (ATCC, cat. CRL-3276), 1.25 mM N-Acetyl-L-cysteine (Sigma-Aldrich, cat. A9165), 10 mM nicotinamide (Sigma-Aldrich, cat. N0636), 1X B-27 supplement (Thermo Fisher Scientific, cat. 17504044), 1X N-2 supplement (Thermo Fisher Scientific, cat. 17502048), 10 microM Y-27632 dihydrochloride (Tocris Bioscience, cat. 1254), and 50 ng/mL human EGF recombinant protein (Thermo Fisher Scientific, cat. PHG0311). The 485176-168-R4-J1-PDC line was cultured in Panc media, which includes all 6C/Colon 1B media components plus 100 ng/mL human FGF-10 (Thermo Fisher Scientific, cat. 100-26), 500 nM SB-431542 (Selleckchem, cat. S1067), and gastrin (Tocris, cat. 3006).
[…]

[1] = second compound 0.0316 µM, first compound 0.0316 µM
[2] = second compound 0.0316 µM, first compound 0.1 µM
[3] = second compound 0.0316 µM, first compound 0.316 µM
[4] = second compound 0.0316 µM, first compound 1 µM
[5] = second compound 0.0316 µM, first compound 3.16 µM
[6] = second compound 0.0316 µM, first compound 10 µM
[7] = second compound 0.1 µM, first compound 0.0316 µM
[8] = second compound 0.1 µM, first compound 0.1 µM
[9] = second compound 0.1 µM, first compound 0.316 µM
[10] = second compound 0.1 µM, first compound 1 µM
[11] = second compound 0.1 µM, first compound 3.16 µM
[12] = second compound 0.1 µM, first compound 10 µM
[13] = second compound 0.316 µM, first compound 0.0316 µM
[14] = second compound 0.316 µM, first compound 0.1 µM
[15] = second compound 0.316 µM, first compound 0.316 µM
[16] = second compound 0.316 µM, first compound 1 µM
[17] = second compound 0.316 µM, first compound 3.16 µM
[18] = second compound 0.316 µM, first compound 10 µM
[19] = second compound 1 µM, first compound 0.0316 µM
[20] = second compound 1 µM, first compound 0.1 µM
[21] = second compound 1 µM, first compound 0.316 µM
[22] = second compound 1 µM, first compound 1 µM
[23] = second compound 1 µM, first compound 3.16 µM
[24] = second compound 1 µM, first compound 10 µM
[25] = second compound 3.16 µM, first compound 0.0316 µM
[26] = second compound 3.16 µM, first compound 0.1 µM
[27] = second compound 3.16 µM, first compound 0.316 µM
[28] = second compound 3.16 µM, first compound 1 µM
[29] = second compound 3.16 µM, first compound 3.16 µM
[30] = second compound 3.16 µM, first compound 10 µM
[31] = second compound 10 µM, first compound 0.0316 µM
[32] = second compound 10 µM, first compound 0.1 µM
[33] = second compound 10 µM, first compound 0.316 µM
[34] = second compound 10 µM, first compound 1 µM
[35] = second compound 10 µM, first compound 3.16 µM
[36] = second compound 10 µM, first compound 10 µM
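Also: spheroids exposed to compounds for seven days.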

CC(C)(O)C1CCC(Nc2ccc3ncc(-c4cccc(C(F)(F)F)c4)n3n2)CC1 (centres undefined) + Cc1[nH]c2ccc(F)cc2c1-c1nc2c3cccnc3c3ncccc3c2[nH]1
IC50 (second compound 0.0316 µM): 1.63 µM | IC50 (second compound 0.1 µM): 2.03 µM | IC50 (second compound 0.316 µM): 1.93 µM | IC50 (second compound 1 µM): 1.71 µM | IC50 (second compound 3.16 µM): 0.447 µM | IC50 (second compound 10 µM): 0.548 µM | viability, T/C [1]: 95.6% | viability, T/C [2]: 104% | viability, T/C [3]: 111% | viability, T/C [4]: 59.3% | viability, T/C [5]: 28.3% | viability, T/C [6]: 46.5% | viability, T/C [7]: 75.3% | viability, T/C [8]: 105% | viability, T/C [9]: 90.4% | viability, T/C [10]: 68.1% | viability, T/C [11]: 39.8% | viability, T/C [12]: 33.2% | viability, T/C [13]: 103% | viability, T/C [14]: 97.9% | viability, T/C [15]: 108% | viability, T/C [16]: 73.4% | viability, T/C [17]: 28.5% | viability, T/C [18]: 36.6% | viability, T/C [19]: 76.7% | viability, T/C [20]: 99% | viability, T/C [21]: 106% | viability, T/C [22]: 68.8% | viability, T/C [23]: 26.2% | viability, T/C [24]: 30.9% | viability, T/C [25]: 64.6% | viability, T/C [26]: 70.4% | viability, T/C [27]: 56.2% | viability, T/C [28]: 32.8% | viability, T/C [29]: 15.4% | viability, T/C [30]: 13.8% | viability, T/C [31]: 70.1% | viability, T/C [32]: 85.7% | viability, T/C [33]: 57.3% | viability, T/C [34]: 39.4% | viability, T/C [35]: 12.7% | viability, T/C [36]: 14%

CCCS(=O)(=O)Nc1ccc(F)c(C(=O)c2c[nH]c3ncc(-c4ccc(Cl)cc4)cc23)c1F + Cc1[nH]c2ccc(F)cc2c1-c1nc2c3cccnc3c3ncccc3c2[nH]1
IC50 (second compound 0.0316 µM): 9.15 µM | IC50 (second compound 0.1 µM): 8.66 µM | IC50 (second compound 0.316 µM): 8.26 µM | IC50 (second compound 1 µM): 7.75 µM | IC50 (second compound 3.16 µM): 5.03 µM | IC50 (second compound 10 µM): 5.99 µM | viability, T/C [1]: 86.4% | viability, T/C [2]: 137% | viability, T/C [3]: 107% | viability, T/C [4]: 117% | viability, T/C [5]: 130% | viability, T/C [6]: 44.5% | viability, T/C [7]: 87.7% | viability, T/C [8]: 105% | viability, T/C [9]: 117% | viability, T/C [10]: 128% | viability, T/C [11]: 122% | viability, T/C [12]: 41% | viability, T/C [13]: 92.1% | viability, T/C [14]: 102% | viability, T/C [15]: 140% | viability, T/C [16]: 137% | viability, T/C [17]: 125% | viability, T/C [18]: 36.3% | viability, T/C [19]: 112% | viability, T/C [20]: 109% | viability, T/C [21]: 108% | viability, T/C [22]: 126% | viability, T/C [23]: 128% | viability, T/C [24]: 31% | viability, T/C [25]: 77% | viability, T/C [26]: 111% | viability, T/C [27]: 76.7% | viability, T/C [28]: 92.2% | viability, T/C [29]: 75.9% | viability, T/C [30]: 11.3% | viability, T/C [31]: 84.6% | viability, T/C [32]: 80.8% | viability, T/C [33]: 85.2% | viability, T/C [34]: 117% | viability, T/C [35]: 109% | viability, T/C [36]: 13.8%
